Assay results reported in patent publication US20260297081A1, “COMPOUNDS AND METHODS OF TREATING CANCERS” (Cullgen Inc., priority 2023, published 2026).
Like-named read-outs stand apart in the source and are kept apart here.

Columns and labels:
[1] = Pharmacokinetics in mice, single dose i.v. injection or oral gavage (FIG. 5); assay type: in vivo; details: mouse, plasma
Protocol: To investigate the pharmacokinetics of heterobifunctional compounds, exemplified by CPD-39, a single dose of CPD-39 via 1 mg/kg intravenous (i.v.) injection or 10 mg/kg was evaluated in mice. Plasma concentration reported at each time points post dosing represents the mean value derived from 3 experimental animals.

CDK4 [2] = molecular target: T1, CDK4 (Homo sapiens, UniProt P11802+Q16531); experiment: CDK4 percentage degradation in Calu-1 cells (Table 6); assay type: cell-based; design: Cells that express cyclin D1-3 and CDK4/6 proteins were treated with heterobifunctional compounds; endogenous in cells; host or cells: Calu-1; details: 16 hours
T1 sequence (P11802 2-303 limits assumed): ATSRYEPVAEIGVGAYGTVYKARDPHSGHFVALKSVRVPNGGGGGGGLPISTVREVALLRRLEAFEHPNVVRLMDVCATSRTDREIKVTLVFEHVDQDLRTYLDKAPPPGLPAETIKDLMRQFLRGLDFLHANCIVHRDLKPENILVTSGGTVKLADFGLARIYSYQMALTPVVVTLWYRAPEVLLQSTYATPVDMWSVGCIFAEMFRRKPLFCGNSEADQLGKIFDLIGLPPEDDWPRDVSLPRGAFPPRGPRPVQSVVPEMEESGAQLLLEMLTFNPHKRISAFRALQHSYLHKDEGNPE
T1 sequence (P24385 whole entry partner): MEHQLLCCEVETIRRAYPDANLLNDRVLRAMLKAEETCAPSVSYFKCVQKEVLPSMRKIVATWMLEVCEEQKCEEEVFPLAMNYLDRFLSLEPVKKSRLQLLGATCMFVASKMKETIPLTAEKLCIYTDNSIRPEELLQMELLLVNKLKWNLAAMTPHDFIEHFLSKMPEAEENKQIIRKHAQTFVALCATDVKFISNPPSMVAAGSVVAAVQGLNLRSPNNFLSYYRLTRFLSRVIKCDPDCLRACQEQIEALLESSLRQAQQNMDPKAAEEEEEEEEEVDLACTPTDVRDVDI
T1 sequence (Q16531 2-1140 limits assumed): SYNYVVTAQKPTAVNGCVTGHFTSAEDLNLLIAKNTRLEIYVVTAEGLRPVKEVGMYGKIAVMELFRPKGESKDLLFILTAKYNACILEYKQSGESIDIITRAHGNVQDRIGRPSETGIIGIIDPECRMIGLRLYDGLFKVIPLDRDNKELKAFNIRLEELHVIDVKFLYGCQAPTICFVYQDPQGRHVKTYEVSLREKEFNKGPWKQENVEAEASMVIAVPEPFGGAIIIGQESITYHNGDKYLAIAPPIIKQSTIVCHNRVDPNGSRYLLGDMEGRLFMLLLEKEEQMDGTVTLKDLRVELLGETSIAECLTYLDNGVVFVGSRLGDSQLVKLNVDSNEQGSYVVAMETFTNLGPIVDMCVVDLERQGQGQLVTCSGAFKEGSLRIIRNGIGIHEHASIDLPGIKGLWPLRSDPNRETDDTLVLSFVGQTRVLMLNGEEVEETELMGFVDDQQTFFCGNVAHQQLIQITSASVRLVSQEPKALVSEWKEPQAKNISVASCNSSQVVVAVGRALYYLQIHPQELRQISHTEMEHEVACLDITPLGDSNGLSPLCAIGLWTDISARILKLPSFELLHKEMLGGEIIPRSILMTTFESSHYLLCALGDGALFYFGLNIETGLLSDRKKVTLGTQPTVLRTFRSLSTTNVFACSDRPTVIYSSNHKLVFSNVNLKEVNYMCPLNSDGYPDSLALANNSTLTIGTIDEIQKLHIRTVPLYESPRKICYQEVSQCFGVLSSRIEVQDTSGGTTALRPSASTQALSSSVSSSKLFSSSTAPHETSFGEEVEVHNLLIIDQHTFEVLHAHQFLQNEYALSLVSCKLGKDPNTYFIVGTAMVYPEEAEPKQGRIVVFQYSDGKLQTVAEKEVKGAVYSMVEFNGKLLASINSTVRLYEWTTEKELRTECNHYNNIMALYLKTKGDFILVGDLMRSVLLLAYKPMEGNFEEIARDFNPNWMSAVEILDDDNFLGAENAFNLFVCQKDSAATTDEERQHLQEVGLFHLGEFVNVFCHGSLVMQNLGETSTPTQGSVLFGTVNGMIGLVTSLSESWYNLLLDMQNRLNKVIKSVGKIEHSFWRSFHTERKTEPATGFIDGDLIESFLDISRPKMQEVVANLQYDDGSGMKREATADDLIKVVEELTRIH
In short: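 Calu-1 cells exposed to heterobifunctional compounds at 40 nM or 200 nM for 16 h. Cyclin D1 and CDK4 levels measured by Western blot of RIPA lysates (BCA-normalised loading), bands quantified by densitometry and expressed as percentage degradation.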

MCF7 cells = experiment: Anti-proliferation (viability) of MCF7 cells (Table 7, FIG. 2B); assay type: cell-based; details: Homo sapiens, MCF7, MCF7 cells, 3-6 days, 10-point serial dilution; read-out: GI IC50 in MCF-7
T47D parental cells = experiment: CellTiter-Lumi cell viability assay, T47D parental cells, 6 days (FIG. 4); assay type: cell-based; details: Homo sapiens, 144 h
Protocol: (§1) Furthermore, we developed one ER^+ breast cancer T47D model with acquired resistance after long period of treatment with 1 μM palbociclib (over IC90). Cells were deemed resistant when growing in the presence of palbo at the same rate as parental cells. Palbo resistance was determined by CellTiter-Lumi cell viability assay (FIG. 4, IC50>10,000 nM).

[3] = Mouse pharmacokinetics (FIG. 5); assay type: in vivo, male Swiss Albino mice; details: plasma, po, mice, 1 mg/kg i.v. and 10 mg/kg p.o., over 12 hours
Protocol: A single dose of CPD-39 via 1 mg/kg intravenous (i.v.) injection or 10 mg/kg oral (p.o.) gavage was evaluated in mice. Plasma concentration of CPD-39 reported at each time points post dosing (5 min, 15 min, 30 min, 1 h, 2 h, 4 h, and 8 h via i.v.; 15 min, 30 min, 1 h, 2 h, 4 h, 6 h, 8 h, and 12 h via p.o.) represents the mean value derived from 3 experimental animals.
Standard PK studies were conducted using male Swiss Albino mice by Sai Life Sciences. A single dose of test compound via intravenous (i.v.) injection or oral (p.o.) gavage was evaluated in fed mice. Plasma concentration of test compound reported at each time points represents the mean value derived from 3 experimental animals. Error bars represent +SD.

[4] = tested on: T47D palbo-resistant cells; experiment: Cell viability in T47D palbociclib-resistant model (FIG. 4); assay type: cell-based; details: 10-point serial dilution, 6 days
Protocol: T47D cells were cultured long-term to resistance in the presence of 1 μM Palbociclib. Palbo resistance was determined by CellTiter-Lumi cell viability assay. T47D parental or palbo-resistant cells were treated with palbociclib, or heterobifunctional compounds CPD-10 or CPD-39 following a 10-point serial dilution for 6 days.
(§2) Calu-1, T47D, MCF7, HCC1428 and other cells were cultured at 37° C. with 5% CO2 in RPMI 1640 or DMEM medium supplemented with 10% fetal bovine serum. Cells were authenticated using the short tandem repeat (STR) assays. Mycoplasma test results were negative. For palbo-resistant cell model, T47D cells were cultured long-term to resistance in the presence of 1 μM Palbociclib. Cells were deemed resistant when growing in the presence of Palbo at the same rate as parental cells.
Cells were seeded at a density of 2,000-5,000 cells per well in 96-well assay plates and treated with test compounds following a 10-point serial dilution for 3-6 days. Cell viability was determined using the CellTiter-Lumi assay kit according to the manufacturer's instructions. The dose-response curves were determined and IC50 values were calculated using the GraphPad Prism software following a nonlinear regression (least squares fit) method. Data presented was mean±standard deviation (SD)unless otherwise indicated.

Calu-1 cells = experiment: Anti-proliferation (viability) of NSCLC Calu-1 cells, 3 days (Table 7, FIG. 2B); assay type: cell-based; details: Homo sapiens, 72 h; Calu-1 cells, 3 days, 10-point serial dilution; read-out: GI IC50 in Calu-1
In short: (§3)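 Treatment length differs by line: Calu-1 cells receive degrader for 3 days, T47D cells for 6 days, each over a 10-point dilution series. A warhead-modified analogue with unchanged DDB1 binder and linker served as the non-CDK4-binding control.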

[5] = tested on: T47D palbo-resistant cells; experiment: CellTiter-Lumi cell viability assay, T47D palbo-resistant cells, 6 days (FIG. 4); assay type: cell-based; details: Homo sapiens, 144 h
Protocol: as §1

T47D cells [6] = experiment: Anti-proliferation (viability) of ER+ breast cancer T47D cells, 6 days (Table 7, FIG. 2B); assay type: cell-based; details: Homo sapiens, 144 h; T47D cells, 6 days, 10-point serial dilution; read-out: GI IC50 in T47D
In short: as §3

[7] = tested on: CCND1, CCND3, and CDK4 in Calu-1 cells; experiment: Immunoblot of CCND1, CCND3 and CDK4 protein levels in Calu-1 cells (FIG. 1A, 4 hours); assay type: cell-based; details: Calu-1 cells, CDK4/6 inhibitor
Protocol: (§4) Specific exemplary heterobifunctional compounds were characterized in Calu-1, MCF7, T47D and other cells. Cells that express cyclin D1-3 and CDK4/6 proteins were treated with heterobifunctional compounds disclosed herein at indicated concentrations. MCF7 cells were deprived of serum for 2 hours followed by the treatment with heterobifunctional compounds. Cells were collected, lysed and subject to immunoblotting using an antibody specific to CCND1, CCND2, CCND3, CDK4, or FoxM1, cyclin A2, or phosphorylated Rb (S807/811) proteins. Tubulin or GAPDH was used as the loading control. DMSO treatment was used as the negative control.

[8] = tested on: CCND1, CCND3, and CDK4 in MCF7 cells; experiment: Immunoblot of CCND1, CCND3 and CDK4 protein levels in MCF7 cells under serum starvation (FIG. 1B, 24 hours); assay type: cell-based; details: MCF7 cells, CDK4/6 inhibitor
Protocol: as §4

T47D cells [9] = experiment: Flow cytometric analysis of Annexin V/7-AAD stained T47D cells (apoptosis), 6 days (FIG. 3A); assay type: cell-based
Protocol: (§5) T47D cells were treated with DMSO, palbociclib, heterobifunctional compound CPD-10 for 6 days at doses approximating IC50and IC90 concentrations as indicated (FIG. 3A). HCC1428 cells were treated with DMSO, palbociclib, heterobifunctional compound CPD-10, or its negative control compound CPD-143 for 6 days at doses approximating IC90 concentrations as indicated (FIG. 3B). Cells were harvested by trypsinization, staining was carried out using the Annexin V Apoptosis Detection Kit. The percentages of early apoptotic (Annexin V^+7-AAD^−, lower right quadrant), late apoptotic (Annexin V^+7-AAD^+, upper right quadrant) and necrotic cells (Annexin V^−7-AAD^+, upper left quadrant) are indicated on dot plots.

T47D cells [10] = experiment: Annexin V apoptosis flow cytometry, T47D (FIG. 3A); assay type: cell-based; details: doses approximating IC50 and IC90, 6 days
Protocol: (§6) T47D cells were treated with DMSO, palbociclib, heterobifunctional compound CPD-10 for 6 days at doses approximating IC50 and IC90 concentrations as indicated (FIG. 3A). HCC1428 cells were treated with DMSO, palbociclib, heterobifunctional compound CPD-10, or its negative control compound CPD-143 for 6 days at doses approximating IC90 concentrations as indicated (FIG. 3B). Cells were harvested by trypsinization, staining was carried out using the Annexin V Apoptosis Detection Kit.
(§7) Assays were performed on the CytoFLEX Cytometer (Beckman Coulter), and data were analyzed using CytExpert software. For cell death and apoptosis analysis, cells were harvested by trypsinization, staining was carried out using the Annexin V Apoptosis Detection Kit (BD Biosciences). Briefly, cells were resuspended in 1× binding buffer and incubated with fluorochrome-conjugated Annexin V and 7-AAD for 15 min in darkness at room temperature.

CCND1 = experiment: Immunoblotting of CCND1 protein level in Calu-1 and MCF7 cells (FIG. 1A-1B); assay type: cell-based
Protocol: (§8) Calu-1 cells were treated with heterobifunctional compound CPD-10, or CDK4/6 inhibitor palbociclib at indicated concentrations for 4 hours (FIG. 1A). MCF7 cells were deprived of serum for 2 hours followed by treatment with CPD-10, or palbociclib at indicated concentrations for 24 hours (FIG. 1B).
(§9) Antibody and Reagent Anti-cyclin D1 (29785), anti-cyclin D2 (3741S), anti-cyclin D3 (2936S), anti-CDK4 (127905), anti-CDK6 (3136S), anti-phospho-Rb (8516S), anti-FoxM1 (54365), anti-cyclinA2(4656S), anti-vinculin antibody (187995) antibodies were purchased from Cell Signaling Technology. HRP-conjugated anti-α-tubulin antibody and anti-α-GAPDH antibody were purchased from GNI. Media, and other cell culture reagents were purchased from Thermo Fisher Scientific. CellTiter-Glo Luminescent Assay kit was purchased from Promega.
as §2
(§10) Cultured cells were washed with cold PBS once and lysed in cold RIPA buffer supplemented with protease inhibitors and phosphatase inhibitors (Beyotime Biotechnology). The solutions were then incubated at 4 ? for 30 min with gentle agitation to fully lysed cells. Cell lysates were centrifuged at 13,000 rpm for 10 min at 4 ? and pellets were discarded. Total protein concentrations in the lysates were determined following BCA assays (Beyotime Biotechnology). Cell lysates were mixed with Laemmli loading buffer and heated at 99° C. for 5 min. Proteins were resolved on SDS-PAGE and visualized using Western ECL Substrate kits on a ChemiDoc MP Imaging system (Bio-Rad). Protein bands were quantitated using the Image Lab software provided by Bio-Rad.

CDK4 [11] = molecular target: T1, CDK4; experiment: Immunoblotting of CDK4 protein level in Calu-1 and MCF7 cells (FIG. 1A-1B); assay type: cell-based; design: Cells that express cyclin D1-3 and CDK4/6 proteins were treated with heterobifunctional compounds; endogenous in cells; host or cells: Calu-1; details: Calu-1 cells, 4 hours
Protocol: as §8, §9, §2, §10

CCND3 = experiment: Immunoblotting of CCND3 protein level in Calu-1 and MCF7 cells (FIG. 1A-1B); assay type: cell-based; details: Calu-1 cells, 4 hours
Protocol: as §8, §9, §2, §10

HCC1428 cells [12] = experiment: Annexin V apoptosis flow cytometry, HCC1428 (FIG. 3B); assay type: cell-based; details: HCC1428, dose approximating IC90, 6 days
Protocol: as §6, §7

HCC1428 cells [13] = experiment: Flow cytometric analysis of Annexin V/7-AAD stained HCC1428 cells (apoptosis), 6 days (FIG. 3B); assay type: cell-based; details: HCC1428; 1 μM; 6 days
Protocol: as §5

CNc1ccc(C(=O)Nc2ccc(N(C)C)nn2)c(NC2CC3(CC(NC(=O)CN4CCN(c5ccc(Nc6ncc7c(C)c(C(C)=O)c(=O)n(C8CCCC8)c7n6)nc5)CC4)C3)C2)n1 (centres unmarked) [CPD-39, 2-((6-(2-(4-(6-((6-Acetyl-8-cyclopentyl-5-methyl-7-oxo-7,8-dihydropyrido[2,3-d]pyrimidin-2-yl)amino)pyridin-3-yl)piperazin-1-yl)acetamido)spiro[3.3]heptan-2-yl)amino)-N-(6-(dimethylamino)pyridazin-3-yl)-6-(methylamino)nicotinamide]
AUC(0-inf) ([1]; iv, mice, 1 mg/kg i.v., read-out: AUCinf, i.v.): 1030 ng·h/mL
clearance ([1]; iv, mice, 1 mg/kg i.v., read-out: CL, i.v.): 16.3 mL/min/kg
Vd ([1]; iv, mice, 1 mg/kg i.v., read-out: VSS, i.v.): 1.6 L/kg
AUC(0-inf) ([1]; po, fed mice, 10 mg/kg p.o., read-out: AUCinf, p.o.): 1580 ng·h/mL
bioavailability ([1]; fed mice, 10 mg/kg oral vs 1 mg/kg i.v.): > 15%
inhibition at 0.04 µM (CDK4 [2]; 40 nM): 50 to 80%
inhibition at 0.2 µM (CDK4 [2]; 200 nM): 50 to 80%
IC50 (MCF7 cells): > 100 nM
IC50 (T47D parental cells): 32.6 nM
bioavailability at 12 h [3]: ~15%
cell viability in palbociclib-resistant model [4]: remained effective in T47D palbo-resistant model
IC50 (Calu-1 cells): ≤ 10 nM
IC50 [5]: 82.5 nM
IC50 (T47D cells [6]): ≤ 50 nM

CC(=O)c1c(C)c2cnc(Nc3ccc(N4CCNCC4)cn3)nc2n(C2CCCC2)c1=O [Palbociclib, palbociclib, reference compound]
effect on CCND and CDK4 protein levels (result in words) [7]: no significant effect
effect on CCND1 protein levels (result in words) [8]: accumulation of CCND1 protein levels
Annexin V+ population (T47D cells [9]; 100 nM): 15.9%
Annexin V+ population (T47D cells [9]; 1 μM): 26.1%
cell apoptosis (T47D cells [10]): much less effect on cell apoptosis
CCND1 protein level (CCND1; Calu-1 cells, 4 hours): did not significantly change the levels of these proteins in Calu-1 cells
CCND1 protein level (CCND1; MCF7 cells, serum deprived 2 hours, treated 24 hours): accumulated CCND1 protein levels in MCF7 cells
CDK4 protein level (CDK4 [11]): did not significantly change the levels of these proteins in Calu-1 cells
IC50 [5]: > 10000 nM
CCND3 protein level (CCND3): did not significantly change the levels of these proteins in Calu-1 cells
cell apoptosis (HCC1428 cells [12]): much less effect on cell apoptosis
Annexin V+ population (HCC1428 cells [13]): 17.7%
